Test results reported in patent publication US8043815B2, “Methods for analysis of PDEF and survivin as interconnected cancer biomarkers and targets for personalized medicine” (Health Research, Inc., priority 2007, dated 2011).

Tests used:
Assay type in all cases: cell-based
[1] = system: PDEF-negative ovarian cancer cell lines; assay: Western blot of PDEF and survivin expression in PDEF-negative ovarian cancer cell lines treated with methylation inhibitor
Protocol: FIGS. 6A and 6B provide photographic representations of results obtained from Western blotting analysis of PDEF expression in PDEF-negative ovarian cancer cell lines treated with and without 5-aza-2-deoxycytidine (5-Aza-dC) for 5 days at 1 μM (FIG. 6A) or different concentrations of 5-Aza-dC (FIG. 6B).
We analyzed whether the loss of PDEF expression in cancer tissues during cancer progression is the result of epigenetic methylation of the PDEF gene. Four PDEF-negative ovarian cancer cell lines were treated with and without the methylation inhibitor 5-aza-2-deoxycytidine (5-Aza-dC) for 5 days at 1 μM (FIG. 6A) or different concentration of 5-Aza-dC (FIG. 6B). Cells were then lysed and analyzed for PDEF expression by Western blots.

[2] = system: HCT116 parental colon cancer cells; assay: Western blot of survivin and PDEF expression in HCT116 parental colon cancer cells; settings: treated for 3 days
Protocol: (§1) FIG. 7 provides a photographic representation of results obtained from differential modulation of survivin and PDEF expression in an HCT116 parental colon cancer cell line, versus in an HCT116 cell line in which both the DNMT1 and DNMT3b DNA methyltransferases have been knocked out. Both HCT116 parental and double knockout (DNMT1^−/−/DNMT3B^−/−) colon cancer cell lines were treated with and without the methylation inhibitor 5-Aza-dC for 3 days as shown. Cells were lysed and analyzed for the expression of survivin and PDEF by western blots. Actin is the internal control of protein loading.
(§2) Since it is know that the survivin gene is not methylated, despite our identification of a CpG island in the survivin gene, this Example further supports that demethylation of PDEF via a DNA methylation inhibitor can facilitate downregulation of survivin expression.

[3] = system: HCT116 colon cancer cells with double knockout (DKO) of DNMT1 and DNMT3b; assay: Western blot of survivin and PDEF expression in HCT116 DNMT1/DNMT3b double knockout cells; settings: treated for 3 days
Protocol: as §1, §2

[4] = system: MDA-MB-231 breast cancer cells; assay: Cell growth and cell death of MDA-MB-231 cells after sequential MSA / Zebularine treatment (digital images); settings: images 48 hours after new medium replacement
Protocol: (§3) FIG. 8 provides a photographic representation of results showing a synergistic effect of DNA methylation inhibitors in combination with DNA methylation inducers/promoters on massive cancer cell death. Sequential treatment of MDA-MB-231 breast cancer cells with methylseleninic acid (MSA, a DNA methylation inducer/promoter) for 48 hours and Zebularine (a DNA methylation inhibitor) for 24 hours alone or in combination as shown. Growth medium with drugs was replaced with complete new medium without drugs 24 hour after Zebularine treatment. Images were then taken using a digital camera 48 hours after new medium replacement.
as §3, with “Sequential” for “FIG. 8 provides a photographic representation of results showing a synergistic effect of DNA methylation inhibitors in combination with DNA methylation inducers/promoters on massive cancer cell death. Sequential”

Nc1ncn([C@H]2C[C@H](O)[C@@H](CO)O2)c(=O)n1 [5-Aza-dC, 5-aza-2-deoxycytidine]
PDEF expression by western blots ([1]; four PDEF-negative ovarian cancer cell lines, 5 days at 1 μM or different concentration): two of the four ovarian cancer cell lines showed restored expression of PDEF
expression of survivin by Western blots ([1]; ovarian cancer cell lines with restored PDEF expression, different concentrations of 5-Aza-dC, 5 days (FIG. 6B)): reduces or eliminates the expression of survivin
PDEF expression by western blots [2]: induces PDEF expression
survivin expression by western blots [2]: decreases survivin expression
PDEF expression by western blots [3]: no effect
survivin expression by western blots [3]: no effect

C[Se](=O)O [MSA, methylseleninic acid]
cell growth inhibition ([4]; MSA 48 hours, Zebularine 24 hours, alone): only moderately inhibit cell growth
induction of cell death ([4]; alone or sequential combination (MSA then Zebularine)): without induction of cell death
